Laboratory results from patent publication US9969742B2, “Imidazotriazinone compounds” (Ironwood Pharmaceuticals, Inc., priority 2012, dated 2018).
Like-named read-outs stand apart in the source and are kept apart here.

Legend:
Type in all cases: biochemical
PDE1B = target: T1, PDE1B (Homo sapiens, UniProt Q01064); experiment: Phosphodiesterase enzyme screening assay, PDE1B
T1 construct: purchased Reaction Biology Corporation, Malvern, Pa
Procedure, shortened: (§1)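 Compounds were tested on commercial human PDE enzymes using a fluorescent cGMP substrate at 4.0 μM, incubated for one hour at room temperature. Values are means of four wells versus controls.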

PDE1A = target: T2, PDE1A (Homo sapiens, UniProt P54750); experiment: Phosphodiesterase enzyme screening assay, PDE1A
T2 construct: purchased Reaction Biology Corporation, Malvern, Pa
T2 sequence (P54750 whole entry): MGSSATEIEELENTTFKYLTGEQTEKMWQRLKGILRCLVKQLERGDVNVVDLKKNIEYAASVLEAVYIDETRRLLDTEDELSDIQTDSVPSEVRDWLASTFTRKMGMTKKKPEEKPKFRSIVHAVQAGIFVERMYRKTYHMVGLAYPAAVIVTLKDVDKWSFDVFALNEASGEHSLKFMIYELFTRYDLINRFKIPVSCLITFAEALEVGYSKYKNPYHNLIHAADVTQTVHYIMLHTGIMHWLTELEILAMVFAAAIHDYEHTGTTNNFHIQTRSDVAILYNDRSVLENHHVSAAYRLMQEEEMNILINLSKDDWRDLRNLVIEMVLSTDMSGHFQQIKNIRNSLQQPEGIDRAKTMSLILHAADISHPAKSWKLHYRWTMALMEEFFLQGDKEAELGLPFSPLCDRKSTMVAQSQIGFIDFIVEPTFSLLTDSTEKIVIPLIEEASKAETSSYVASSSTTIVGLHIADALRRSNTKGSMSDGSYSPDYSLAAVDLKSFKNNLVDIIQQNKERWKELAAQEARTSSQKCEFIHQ
Procedure, shortened: as §1

PDE9A2 = target: T3, PDE9A2 (Homo sapiens, UniProt O76083); experiment: Phosphodiesterase enzyme screening assay, PDE9A2
T3 construct: purchased Reaction Biology Corporation, Malvern, Pa
T3 sequence (O76083 1-533 isoform O76083-2): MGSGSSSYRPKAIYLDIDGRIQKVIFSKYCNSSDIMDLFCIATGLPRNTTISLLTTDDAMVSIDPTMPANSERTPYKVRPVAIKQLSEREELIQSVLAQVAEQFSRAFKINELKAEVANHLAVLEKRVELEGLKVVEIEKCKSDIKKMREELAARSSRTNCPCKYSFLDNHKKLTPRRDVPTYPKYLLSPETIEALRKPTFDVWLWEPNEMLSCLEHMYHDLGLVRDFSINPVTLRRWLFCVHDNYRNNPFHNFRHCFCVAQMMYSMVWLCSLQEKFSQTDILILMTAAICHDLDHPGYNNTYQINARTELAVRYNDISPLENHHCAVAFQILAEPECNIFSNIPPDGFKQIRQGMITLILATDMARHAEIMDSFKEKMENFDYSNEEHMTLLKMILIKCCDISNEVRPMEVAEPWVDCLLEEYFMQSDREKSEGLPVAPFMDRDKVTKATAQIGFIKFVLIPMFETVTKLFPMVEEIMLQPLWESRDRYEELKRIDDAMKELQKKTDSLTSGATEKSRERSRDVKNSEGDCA
Procedure, shortened: as §1

[1] = Table 1, ratio of IC50 values, value greater than 1 indicates greater selectivity for PDE9A2
[2] = Table 1, 10 concentrations, 4.0 μM cGMP substrate, 1 hour at R.T., read-out: Band (PDE9A2 IC50)
[3] = ratio of IC50 values PDE1B vs PDE9A2, value greater than 1 indicates greater selectivity for PDE9A2
[4] = ratio of IC50 values PDE1A vs PDE9A2, value greater than 1 indicates greater selectivity for PDE9A2
[5] = IC50 band, 4.0 μM cGMP substrate, 1 hour at R.T.
[6] = ratio of IC50 values, PDE1B versus PDE9A2, value greater than 1 indicates greater selectivity for PDE9A2
[7] = ratio of IC50 values, PDE1A versus PDE9A2, value greater than 1 indicates greater selectivity for PDE9A2
[8] = ratio of IC50 values, value greater than 1 indicates greater selectivity for PDE9A2
[9] = ratio of IC50 values PDE1B / PDE9A2, value greater than 1 = greater selectivity for PDE9A2
[10] = ratio of IC50 values PDE1A / PDE9A2, value greater than 1 = greater selectivity for PDE9A2
[11] = 4.0 μM cGMP substrate, 1 hour at R.T., read-out: Band (PDE9A2 IC50)
[12] = Table 2, ratio of IC50 values, value greater than 1 indicates greater selectivity for PDE9A2

T1 sequence (Q01064 whole entry): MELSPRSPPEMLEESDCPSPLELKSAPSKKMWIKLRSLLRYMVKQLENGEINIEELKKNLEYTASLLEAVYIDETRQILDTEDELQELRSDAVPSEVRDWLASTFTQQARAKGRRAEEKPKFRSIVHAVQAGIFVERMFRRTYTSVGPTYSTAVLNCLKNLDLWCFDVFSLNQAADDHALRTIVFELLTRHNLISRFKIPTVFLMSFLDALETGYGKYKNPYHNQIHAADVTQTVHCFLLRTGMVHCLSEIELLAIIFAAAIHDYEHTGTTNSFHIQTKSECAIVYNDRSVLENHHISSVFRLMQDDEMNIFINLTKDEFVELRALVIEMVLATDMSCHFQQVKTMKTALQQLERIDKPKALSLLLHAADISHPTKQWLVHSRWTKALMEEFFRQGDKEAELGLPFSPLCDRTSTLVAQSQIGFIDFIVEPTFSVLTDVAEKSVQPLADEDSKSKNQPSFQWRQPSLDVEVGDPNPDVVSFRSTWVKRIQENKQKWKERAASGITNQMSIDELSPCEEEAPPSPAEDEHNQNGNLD

Cc1ncc(CN2CC(C)C(c3nn4c(C5CCOCC5)ncc4c(=O)[nH]3)C2)s1 (single isomer, unassigned; (+)) [(+)-2-((3,4-trans)-4-methyl-1-((2-methylthiazol-5-yl)methyl)pyrrolidin-3-yl)-7-(tetrahydro-2H-pyran-4-yl)imidazo[5,1-f][1,2,4]triazin-4(3H)-one]
PDE1B selectivity (versus PDE9A2) (PDE1B; [1]): 243
PDE1A selectivity (versus PDE9A2) (PDE1A; [1]): 129
IC50 (PDE9A2; [2]): < 1000 nM

Cc1ccc(F)cc1-c1ncc2c(=O)[nH]c(C3CN(Cc4ccc(Cl)cc4)CC3C)nn12 (single isomer, unassigned; (-)) [(−)-2-((3,4-trans)-1-(4-chlorobenzyl)-4-methylpyrrolidin-3-yl)-7-(5-fluoro-2-methylphenyl)imidazo[5,1-f][1,2,4]triazin-4(3H)-one]
PDE1B selectivity (versus PDE9A2) (PDE1B; [3]): 1735
PDE1A selectivity (versus PDE9A2) (PDE1A; [4]): 3375
IC50 (PDE9A2; [5]): < 1000 nM

Cc1cc(F)c(F)cc1-c1ncc2c(=O)[nH]c(C3CN(Cc4nc5ccccn5n4)CC3C)nn12 (single isomer, unassigned; (+)) [(+)-2-((3,4-trans)-1-([1,2,4]triazolo[1,5-a]pyridin-2-ylmethyl)-4-methylpyrrolidin-3-yl)-7-(4,5-difluoro-2-methylphenyl)imidazo[5,1-f][1,2,4]triazin-4(3H)-one]
PDE1B selectivity (versus PDE9A2) (PDE1B; [6]): 2140
PDE1A selectivity (versus PDE9A2) (PDE1A; [7]): 1000
IC50 (PDE9A2; read-out: Band (PDE9A2 IC50)): < 1000 nM

CC1CN(Cc2cccc(C(F)(F)F)c2)CC1c1nn2c(C3CCOCC3)ncc2c(=O)[nH]1 (single isomer, unassigned; (+)) [(+)-2-((3,4-trans)-4-methyl-1-(3-(trifluoromethyl)benzyl)pyrrolidin-3-yl)-7-(tetrahydro-2H-pyran-4-yl)imidazo[5,1-f][1,2,4]triazin-4(3H)-one]
PDE1B selectivity (versus PDE9A2) (PDE1B; [1]): 86
PDE1A selectivity (versus PDE9A2) (PDE1A; [1]): 203
IC50 (PDE9A2; [2]): < 1000 nM

CC1CN(CC2CCC(F)(F)CC2)CC1c1nn2c(C3CCOCC3)ncc2c(=O)[nH]1 (single isomer, unassigned; (+)) [(+)-2-((3,4-trans)-1-((4,4-difluorocyclohexyl)methyl)-4-methylpyrrolidin-3-yl)-7-(tetrahydro-2H-pyran-4-yl)imidazo[5,1-f][1,2,4]triazin-4(3H)-one]
PDE1B selectivity (versus PDE9A2) (PDE1B; [8]): 68
PDE1A selectivity (versus PDE9A2) (PDE1A; [8]): 51
IC50 (PDE9A2; read-out: Band (PDE9A2 IC50)): < 1000 nM

CC1CN(Cc2cn3ccccc3n2)CC1c1nn2c(C3CCCC3)ncc2c(=O)[nH]1 (single isomer, unassigned; (+)) [(+)-7-cyclopentyl-2-((3,4-trans)-1-(imidazo[1,2-a]pyridin-2-ylmethyl)-4-methylpyrrolidin-3-yl)imidazo[5,1-f][1,2,4]triazin-4(3H)-one]
PDE1B selectivity (versus PDE9A2) (PDE1B; [6]): 125
PDE1A selectivity (versus PDE9A2) (PDE1A; [7]): 57
IC50 (PDE9A2; read-out: Band (PDE9A2 IC50)): < 1000 nM

CC1CN(Cc2cnccn2)CC1c1nn2c(C3CCC(F)(F)CC3)ncc2c(=O)[nH]1 (single isomer, unassigned; (+)) [(+)-7-(4,4-difluorocyclohexyl)-2-((3,4-trans)-4-methyl-1-(pyrazin-2-ylmethyl)pyrrolidin-3-yl)imidazo[5,1-f][1,2,4]triazin-4(3H)-one]
PDE1B selectivity (versus PDE9A2) (PDE1B; [3]): 575
PDE1A selectivity (versus PDE9A2) (PDE1A; [4]): 233
IC50 (PDE9A2; [5]): < 1000 nM

CC1CN(Cc2ccccc2)CC1c1nn2c(-c3ccc(F)cc3)ncc2c(=O)[nH]1 (single isomer, unassigned; (+)) [(+)-2-((3,4-trans)-1-benzyl-4-methylpyrrolidin-3-yl)-7-(4-fluorophenyl)imidazo[5,1-f][1,2,4]triazin-4(3H)-one]
PDE1B selectivity (versus PDE9A2) (PDE1B; [6]): 286
PDE1A selectivity (versus PDE9A2) (PDE1A; [7]): 220
IC50 (PDE9A2; read-out: Band (PDE9A2 IC50)): < 1000 nM

CC1CN(Cc2c(F)cccc2Cl)CC1c1nn2c(C3CCOCC3)ncc2c(=O)[nH]1 (single isomer, unassigned; (+)) [(+)-2-((3,4-trans)-1-(2-chloro-6-fluorobenzyl)-4-methylpyrrolidin-3-yl)-7-(tetrahydro-2H-pyran-4-yl)imidazo[5,1-f][1,2,4]triazin-4(3H)-one]
PDE1B selectivity (versus PDE9A2) (PDE1B; [9]): 252
PDE1A selectivity (versus PDE9A2) (PDE1A; [10]): 196
IC50 (PDE9A2; [11]): < 1000 nM

C[C@@H]1CN(Cc2ccc3cccnc3c2)C[C@H]1c1nn2c(C3CCOCC3)ncc2c(=O)[nH]1 (relative stereo) [(+)-2-((3,4-trans)-4-methyl-1-(quinolin-7-ylmethyl)pyrrolidin-3-yl)-7-(tetrahydro-2H-pyran-4-yl)imidazo[5,1-f][1,2,4]triazin-4(3H)-one]
PDE1B selectivity (versus PDE9A2) (PDE1B; [1]): 5180
PDE1A selectivity (versus PDE9A2) (PDE1A; [1]): 5020
IC50 (PDE9A2; [2]): < 1000 nM

CC1CN(Cc2ccc(Cl)c(C(F)(F)F)c2)CC1c1nn2c(C3CCOCC3)ncc2c(=O)[nH]1 (single isomer, unassigned; (+)) [(+)-2-((3,4-trans)-1-(4-chloro-3-(trifluoromethyl)benzyl)-4-methylpyrrolidin-3-yl)-7-(tetrahydro-2H-pyran-4-yl)imidazo[5,1-f][1,2,4]triazin-4(3H)-one]
PDE1B selectivity (versus PDE9A2) (PDE1B; [9]): 406
PDE1A selectivity (versus PDE9A2) (PDE1A; [10]): 196
IC50 (PDE9A2; [11]): < 1000 nM

CC1CN(Cc2cccc3cccnc23)CC1c1nn2c(C3CCOCC3)ncc2c(=O)[nH]1 (single isomer, unassigned; (+)) [(+)-2-((3,4-trans)-4-methyl-1-(quinolin-8-ylmethyl)pyrrolidin-3-yl)-7-(tetrahydro-2H-pyran-4-yl)imidazo[5,1-f][1,2,4]triazin-4(3H)-one]
PDE1B selectivity (versus PDE9A2) (PDE1B; ratio of IC50 values, PDE1B versus PDE9A2, value greater than 1 = greater selectivity for PDE9A2): 673
PDE1A selectivity (versus PDE9A2) (PDE1A; ratio of IC50 values, PDE1A versus PDE9A2, value greater than 1 = greater selectivity for PDE9A2): 647
IC50 (PDE9A2; Table 3, 4.0 μM cGMP substrate, 1 hour at R.T., read-out: Band (PDE9A2 IC50)): < 1000 nM

CC1CN(Cc2nc3ccccc3[nH]2)CC1c1nn2c(C3CCOCC3)ncc2c(=O)[nH]1 (single isomer, unassigned; (-)) [(−)-2-((3,4-trans)-1-((1H-benzo[d]imidazol-2-yl)methyl)-4-methylpyrrolidin-3-yl)-7-(tetrahydro-2H-pyran-4-yl)imidazo[5,1-f][1,2,4]triazin-4(3H)-one]
PDE1B selectivity (versus PDE9A2) (PDE1B; [1]): 540
PDE1A selectivity (versus PDE9A2) (PDE1A; [1]): 433
IC50 (PDE9A2; [2]): < 1000 nM

CC1CN(Cc2cc(F)ccc2Cl)CC1c1nn2c(C3CCOCC3)ncc2c(=O)[nH]1 (single isomer, unassigned; (+)) [(+)-2-((3,4-trans)-1-(2-chloro-5-fluorobenzyl)-4-methylpyrrolidin-3-yl)-7-(tetrahydro-2H-pyran-4-yl)imidazo[5,1-f][1,2,4]triazin-4(3H)-one]
PDE1B selectivity (versus PDE9A2) (PDE1B; [9]): 73
PDE1A selectivity (versus PDE9A2) (PDE1A; [10]): 177
IC50 (PDE9A2; [11]): < 1000 nM

CC1CN(Cc2ccccc2)CC1c1nn2c(-c3cccc(F)c3)ncc2c(=O)[nH]1 (single isomer, unassigned; (+)) [(+)-2-((3,4-trans)-1-benzyl-4-methylpyrrolidin-3-yl)-7-(3-fluorophenyl)imidazo[5,1-f][1,2,4]triazin-4(3H)-one]
PDE1B selectivity (versus PDE9A2) (PDE1B; [6]): 113
PDE1A selectivity (versus PDE9A2) (PDE1A; [7]): 70
IC50 (PDE9A2; read-out: Band (PDE9A2 IC50)): < 1000 nM

CC1CN(Cc2ccc(F)cc2)CC1c1nn2c(C3CCOCC3)ncc2c(=O)[nH]1 (single isomer, unassigned; (+)) [(+)-2-((3,4-trans)-1-(4-fluorobenzyl)-4-methylpyrrolidin-3-yl)-7-(tetrahydro-2H-pyran-4-yl)imidazo[5,1-f][1,2,4]triazin-4(3H)-one]
PDE1B selectivity (versus PDE9A2) (PDE1B; [1]): 714
PDE1A selectivity (versus PDE9A2) (PDE1A; [1]): 664
IC50 (PDE9A2; [2]): < 1000 nM

CC1CN(Cc2ccc(F)cc2)CC1c1nn2c(-c3ccccc3)ncc2c(=O)[nH]1 (single isomer, unassigned; (+)) [(+)-2-((3,4-trans)-1-(4-fluorobenzyl)-4-methylpyrrolidin-3-yl)-7-phenylimidazo[5,1-f][1,2,4]triazin-4(3H)-one]
PDE1B selectivity (versus PDE9A2) (PDE1B; [6]): 7
PDE1A selectivity (versus PDE9A2) (PDE1A; [7]): 3
IC50 (PDE9A2; read-out: Band (PDE9A2 IC50)): < 1000 nM

CC1CN(Cc2ccccc2Cl)CC1c1nn2c(C3CCOCC3)ncc2c(=O)[nH]1 (single isomer, unassigned; (+)) [(+)-2-((3,4-trans)-1-(2-chlorobenzyl)-4-methylpyrrolidin-3-yl)-7-(tetrahydro-2H-pyran-4-yl)imidazo[5,1-f][1,2,4]triazin-4(3H)-one]
PDE1B selectivity (versus PDE9A2) (PDE1B; [1]): 48
PDE1A selectivity (versus PDE9A2) (PDE1A; [1]): 92
IC50 (PDE9A2; [2]): < 1000 nM

CC1CN(Cc2ncc(Cl)cn2)CC1c1nn2c(C3CCOCC3)ncc2c(=O)[nH]1 (single isomer, unassigned; (+)) [(+)-2-((3,4-trans)-1-((5-chloropyrimidin-2-yl)methyl)-4-methylpyrrolidin-3-yl)-7-(tetrahydro-2H-pyran-4-yl)imidazo[5,1-f][1,2,4]triazin-4(3H)-one]
PDE1B selectivity (versus PDE9A2) (PDE1B; [12]): 154
PDE1A selectivity (versus PDE9A2) (PDE1A; [12]): 95
IC50 (PDE9A2; Table 2, 10 concentrations, 4.0 μM cGMP substrate, 1 hour at R.T., read-out: Band (PDE9A2 IC50)): < 1000 nM
